Laboratory results: US6984641B2, “Carboline derivatives as PDE5 inhibitors” (Lilly Icos LLC., priority 2001, dated 2006)
pIC50: −log10 of the molar value.

What was measured:
human recombinant PDE5 = human recombinant PDE5 (Homo sapiens, UniProt O76074); experiment: Inhibitory effect on cGMP-PDE (one-step assay, 8-[H3]-cGMP), human recombinant PDE5; type: biochemical
Experimental: The compounds of the present invention were tested for an ability to inhibit PDE5. The ability of a compound to inhibit PDE5 activity is related to the IC50 yalue for the compound, i.e., the concentration of inhibitor required for 50% inhibition of enzyme activity. The IC50 value for compounds of the present invention were determined using recombinant human PDE5. […]
Cell pellets (29 g) were thawed on ice with an equal volume of Lysis Buffer (25 mM Tris HCl, pH 8, 5 mM MgCl2, 0.25 mM DTT, 1 mM benzamidine, and 10 μM ZnSO4). Cells were lysed in a Microfluidizer® (Microfluidics Corp.) using nitrogen at 20,000 psi. The lysate was centrifuged and filtered through 0.45 μm disposable filters. The filtrate was applied to a 150 mL column of Q SEPHAROSE® Fast-Flow (Pharmacia). The column was washed with 1.5 volumes of Buffer A (20 mM Bis-Tris Propane, pH 6.8, 1 mM MgCl2, 0.25 mM DTT, 10 μM ZnSO4) and eluted with a step gradient of 125 mM NaCl in Buffer A followed by a linear gradient of 125–1000 mM NaCl in Buffer A. Active fractions from the linear gradient were applied to a 180 mL hydroxyapatite column in Buffer B (20 mM Bis-Tris Propane (pH 6.8), 1 mM MgCl2, 0.25 mM DTT, 10 μM ZnSO4, and 250 mM KCl). After loading, the column was washed with 2 volumes of Buffer B and eluted with a linear gradient of 0–125 mM potassium phosphate in Buffer B. Active fractions were pooled, precipitated with 60% ammonium sulfate, and resuspended in Buffer C (20 mM Bis-Tris Propane, pH 6.8, 125 mM NaCl, 0.5 mM DTT, and 10 μM ZnSO4). The pool was applied to a 140 mL column of SEPHA-CRYL® S-300 HR and eluted with Buffer C. Active fractions were diluted to 50% glycerol and stored at −20° C.
(§1) CGMP-PDE activity of compounds of the present invention was measured using a one-step assay adapted from Wells et al., Biochim. Biophys. Acta, 384, 430 (1975). The reaction medium contained 50 mM Tris-HCl, pH 7.5, 5 mM magnesium acetate, 250 μg/ml 5′-Nucleotidase, 1 mM EGTA, and 0.15 μM 8-[H^3]-cGMP. Unless otherwise indicated, the enzyme used was a human recombinant PDE5 (ICOS Corp., Bothell, Wash.).
(§2) Compounds of the invention were dissolved in DMSO finally present at 2% in the assay.

PDE5 (bovine aorta) = biological target: T1, PDE5 (bovine aorta) (Bos taurus, UniProt Q28156); experiment: Inhibitory effect on cGMP-PDE (one-step assay), enzyme from bovine aorta; type: biochemical; conditions: vs. bovine aorta (footnote 1)
T1 construct: from tissue; host or cells: bovine aorta
Experimental: as §1, §2

Structure (SMILES)	pIC50 (human recombinant PDE5)	pIC50 (PDE5 (bovine aorta))
O=C1CCC(=O)N2[C@H](c3ccc4c(c3)OCO4)c3[nH]c4ccccc4c3C[C@@H]12 (racemic) [Example 6, (+−,trans)-6-Benzo[1,3]dioxol-5-yl-5,6,9,10,11a,12-hexahydroindolo[3,2-b]quinolizine-8,11-dione]	6.26	–
O=C1CC(=O)N2CCc3c([nH]c4ccccc34)C2C1 (stereo not drawn) [Example 8, 6,7,12,12b-Tetrahydro-1H-indolo[2,3-a]-quinolizine-2,4-dione]	–	6.60
CN1CN2[C@H](c3ccc4c(c3)OCO4)c3[nH]c4ccccc4c3C[C@@H]2C(=O)N1C [Example 1, (5aR,10R)-10-Benzo[1,3]dioxol-5-yl-7,8-dimethyl-5,5a,8,9,10,11-hexahydro-7H-7,8,9a,11-tetraazabenzo[b]floren-6-one]	7.03	–
O=C1OCC(=O)N2[C@H](c3ccc4c(c3)OCO4)c3[nH]c4ccccc4c3C[C@H]12 [Example 7, (6R,11aS)-10-Benzo[1,3]dioxol-5-yl-5,5a,10,11-tetrahydro-7-oxa-9a,11-diazabenzo[b]fluorene-6.9-dione]	7.30	–
COC(=O)C1CC(=O)N2[C@H](c3ccc4c(c3)OCO4)c3[nH]c4ccccc4c3C[C@@H]2C1O (stereo partly drawn) [Example 5, (+−,cis)-6-Benzo[1,3]dioxol-5-yl-11-hydroxy-8-oxa-5,6,8,9,11a,12-hexahydroindolo[3,2-b]-guinolizine-10-carboxylic acid methyl ester]	7.10	–
COc1ccc([C@H]2c3[nH]c4ccccc4c3C[C@H]3COCC(=O)N32)cc1 (racemic) [Example 4, (+−,cis)-10-(4-Methoxyphenyl)-5a,6,10,11-tetrahydro-5H-7-oxa-9a,11-diazabenzo[b]fluoren-9-one]	6.52	–
CC1=CCC(/C=C/C(=O)N2CCc3c([nH]c4ccccc34)C2c2ccc3c(c2)OCO3)CC1 (stereo not drawn) [Example 20]	6.74	–
O=C1COC[C@@H]2Cc3c([nH]c4ccccc34)[C@H](c3ccc4c(c3)OCO4)N12 (racemic) [Example 3, (+−,cis)-10-Benzo[1,3]dioxol-5-yl-5a,6,10,11-tetrahydro-5H-7-oxa-9a,11-diazabenzo[b]-fluoren-9-one]	7.15	–
O=C(/C=C/c1ccccc1)N1CCc2c([nH]c3cc(-c4ccccc4)ccc23)C1c1ccc2c(c1)OCO2 (stereo not drawn) [Example 23]	6.16	–
COc1cc2c(cc1O)CN1CCc3c([nH]c4ccccc34)C1C2 (stereo not drawn) [Example 15, 2-Methoxy-5,7,8,13,13b,14-hexahydroindolo-[2′,3′:3,4]pyrido[1,2-b]isoquinolin-3-ol]	–	6.52
Cn1c2ccccc2c2c(=O)n3c(cc21)-c1[nH]c2ccccc2c1CC3 [Example 18]	–	7.15
O=C1Nc2ccccc2C2c3[nH]c4ccccc4c3CCN12 (stereo not drawn) [Example 16, 7,8,13,13b-Tetrahydro-5H-5,6a,13-triazaindeno-[1,2-c]phenanthren-6-one]	–	6.05
O=C(/C=C/c1ccccc1)N1CCc2c([nH]c3cc(Br)ccc23)C1c1ccc2c(c1)OCO2 (stereo not drawn) [Example 22]	7.59	–
Cc1cccc2c3c([nH]c12)C(c1ccc2c(c1)OCO2)N(C(=O)/C=C/c1ccc(C(=O)O)cc1)CC3 (stereo not drawn) [Example 21]	8.52	–
COc1ccc(C2c3[nH]c4ccccc4c3CC3C(=O)N(Cc4ccccc4)C(=O)CN32)cc1 (stereo not drawn) [Example 2, 2-Benzyl-6-(4-methoxyphenyl)-6,7,12,12a-tetrahydro-pyrazino[1′,2′:1,6]pyrido[3,4-b]indole-1,3-dione]	–	6.47
